Measurements taken from ChEMBL document CHEMBL4507291 (2021).

What was measured:
[1] = molecular target: Vascular endothelial growth factor receptor 1 (Homo sapiens) (UniProt P17948)
[2] = molecular target: T1, Dual specificity mitogen-activated protein kinase kinase 3 (Homo sapiens) (UniProt P46734)
T1 sequence (whole entry): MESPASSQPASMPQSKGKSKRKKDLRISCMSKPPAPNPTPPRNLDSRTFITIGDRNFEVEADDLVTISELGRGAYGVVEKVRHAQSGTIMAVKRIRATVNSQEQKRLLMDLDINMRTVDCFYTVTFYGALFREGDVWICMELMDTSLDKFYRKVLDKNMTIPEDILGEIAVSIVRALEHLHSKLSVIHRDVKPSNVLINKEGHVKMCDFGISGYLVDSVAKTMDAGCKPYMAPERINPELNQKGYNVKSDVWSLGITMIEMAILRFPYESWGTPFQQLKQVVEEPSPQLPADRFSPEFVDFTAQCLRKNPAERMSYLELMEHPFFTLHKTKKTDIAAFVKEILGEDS

[3] = molecular target: Serine/threonine-protein kinase STK11 (Homo sapiens) (UniProt Q15831)
Chain of Serine/threonine-protein kinase STK11 (Homo sapiens) (Q15831 whole entry, canonical isoform): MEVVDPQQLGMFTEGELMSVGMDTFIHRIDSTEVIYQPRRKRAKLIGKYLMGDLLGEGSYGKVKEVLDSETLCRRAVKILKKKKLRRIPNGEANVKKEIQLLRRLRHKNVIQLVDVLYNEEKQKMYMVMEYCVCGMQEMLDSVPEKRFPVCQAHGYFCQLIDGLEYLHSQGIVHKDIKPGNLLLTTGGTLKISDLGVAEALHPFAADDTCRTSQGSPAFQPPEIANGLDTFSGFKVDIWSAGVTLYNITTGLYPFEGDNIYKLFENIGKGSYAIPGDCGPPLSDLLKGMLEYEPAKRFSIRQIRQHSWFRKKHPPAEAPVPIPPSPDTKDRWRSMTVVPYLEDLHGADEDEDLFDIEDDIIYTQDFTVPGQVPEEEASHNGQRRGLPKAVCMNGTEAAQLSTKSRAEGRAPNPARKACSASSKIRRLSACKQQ

[4] = molecular target: Phosphorylase b kinase gamma catalytic chain, skeletal muscle/heart isoform (Homo sapiens) (UniProt Q16816)
Chain of Phosphorylase b kinase gamma catalytic chain, skeletal muscle/heart isoform (Homo sapiens) (Q16816 whole entry, looked up, canonical isoform): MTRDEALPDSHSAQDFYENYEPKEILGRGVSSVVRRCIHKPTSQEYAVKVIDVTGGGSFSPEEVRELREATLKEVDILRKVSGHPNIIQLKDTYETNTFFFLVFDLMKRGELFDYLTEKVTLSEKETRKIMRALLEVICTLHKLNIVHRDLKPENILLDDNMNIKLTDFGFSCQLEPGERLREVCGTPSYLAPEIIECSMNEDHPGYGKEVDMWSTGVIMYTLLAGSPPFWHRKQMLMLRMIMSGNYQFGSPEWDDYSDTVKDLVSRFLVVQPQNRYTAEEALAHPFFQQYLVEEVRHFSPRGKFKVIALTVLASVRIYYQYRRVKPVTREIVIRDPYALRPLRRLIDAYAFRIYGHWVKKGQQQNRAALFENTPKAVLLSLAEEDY

[5] = molecular target: Hepatocyte growth factor receptor (Homo sapiens) (UniProt P08581)
Chain of Hepatocyte growth factor receptor (Homo sapiens) (P08581 whole entry): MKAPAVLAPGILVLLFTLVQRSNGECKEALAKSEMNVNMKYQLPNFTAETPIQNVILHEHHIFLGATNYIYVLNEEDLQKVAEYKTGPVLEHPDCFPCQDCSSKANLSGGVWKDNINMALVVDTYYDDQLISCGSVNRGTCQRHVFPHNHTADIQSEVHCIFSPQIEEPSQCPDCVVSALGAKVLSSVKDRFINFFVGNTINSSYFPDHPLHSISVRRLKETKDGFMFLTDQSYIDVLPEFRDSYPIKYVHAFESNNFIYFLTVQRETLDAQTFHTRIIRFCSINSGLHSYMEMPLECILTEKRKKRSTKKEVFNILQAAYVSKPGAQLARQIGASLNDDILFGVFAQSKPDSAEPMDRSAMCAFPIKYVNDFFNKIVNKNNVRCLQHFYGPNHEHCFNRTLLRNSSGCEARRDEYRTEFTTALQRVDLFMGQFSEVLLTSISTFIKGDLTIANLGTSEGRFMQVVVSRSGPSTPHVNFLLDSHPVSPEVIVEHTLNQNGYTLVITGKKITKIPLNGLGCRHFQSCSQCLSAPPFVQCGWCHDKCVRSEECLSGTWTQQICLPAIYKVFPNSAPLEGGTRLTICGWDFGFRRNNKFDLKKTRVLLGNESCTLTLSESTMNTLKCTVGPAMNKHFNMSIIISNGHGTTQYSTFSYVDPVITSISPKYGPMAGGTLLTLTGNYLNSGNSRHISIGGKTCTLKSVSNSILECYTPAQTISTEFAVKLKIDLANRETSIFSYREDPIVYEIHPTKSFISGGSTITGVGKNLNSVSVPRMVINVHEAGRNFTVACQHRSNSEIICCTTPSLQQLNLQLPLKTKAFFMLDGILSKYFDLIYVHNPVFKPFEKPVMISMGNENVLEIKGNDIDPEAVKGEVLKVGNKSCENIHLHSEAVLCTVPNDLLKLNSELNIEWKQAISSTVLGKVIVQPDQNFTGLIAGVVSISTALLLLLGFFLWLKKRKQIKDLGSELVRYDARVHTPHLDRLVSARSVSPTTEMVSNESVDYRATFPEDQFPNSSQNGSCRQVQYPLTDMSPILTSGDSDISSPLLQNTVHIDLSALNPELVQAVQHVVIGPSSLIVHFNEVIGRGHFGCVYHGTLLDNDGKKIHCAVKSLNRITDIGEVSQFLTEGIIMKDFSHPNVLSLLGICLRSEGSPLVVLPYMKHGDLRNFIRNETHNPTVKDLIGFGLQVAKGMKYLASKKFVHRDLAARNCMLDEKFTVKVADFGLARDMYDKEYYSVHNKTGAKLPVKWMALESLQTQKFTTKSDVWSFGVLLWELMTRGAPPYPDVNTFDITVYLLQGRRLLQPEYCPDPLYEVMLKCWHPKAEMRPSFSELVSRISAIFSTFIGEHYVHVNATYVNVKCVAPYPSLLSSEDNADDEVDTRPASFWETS

[6] = molecular target: SNF-related serine/threonine-protein kinase (Homo sapiens) (UniProt Q9NRH2)
[7] = molecular target: T2, Ephrin type-A receptor 3 (Homo sapiens) (UniProt P29320)
T2 sequence (whole entry): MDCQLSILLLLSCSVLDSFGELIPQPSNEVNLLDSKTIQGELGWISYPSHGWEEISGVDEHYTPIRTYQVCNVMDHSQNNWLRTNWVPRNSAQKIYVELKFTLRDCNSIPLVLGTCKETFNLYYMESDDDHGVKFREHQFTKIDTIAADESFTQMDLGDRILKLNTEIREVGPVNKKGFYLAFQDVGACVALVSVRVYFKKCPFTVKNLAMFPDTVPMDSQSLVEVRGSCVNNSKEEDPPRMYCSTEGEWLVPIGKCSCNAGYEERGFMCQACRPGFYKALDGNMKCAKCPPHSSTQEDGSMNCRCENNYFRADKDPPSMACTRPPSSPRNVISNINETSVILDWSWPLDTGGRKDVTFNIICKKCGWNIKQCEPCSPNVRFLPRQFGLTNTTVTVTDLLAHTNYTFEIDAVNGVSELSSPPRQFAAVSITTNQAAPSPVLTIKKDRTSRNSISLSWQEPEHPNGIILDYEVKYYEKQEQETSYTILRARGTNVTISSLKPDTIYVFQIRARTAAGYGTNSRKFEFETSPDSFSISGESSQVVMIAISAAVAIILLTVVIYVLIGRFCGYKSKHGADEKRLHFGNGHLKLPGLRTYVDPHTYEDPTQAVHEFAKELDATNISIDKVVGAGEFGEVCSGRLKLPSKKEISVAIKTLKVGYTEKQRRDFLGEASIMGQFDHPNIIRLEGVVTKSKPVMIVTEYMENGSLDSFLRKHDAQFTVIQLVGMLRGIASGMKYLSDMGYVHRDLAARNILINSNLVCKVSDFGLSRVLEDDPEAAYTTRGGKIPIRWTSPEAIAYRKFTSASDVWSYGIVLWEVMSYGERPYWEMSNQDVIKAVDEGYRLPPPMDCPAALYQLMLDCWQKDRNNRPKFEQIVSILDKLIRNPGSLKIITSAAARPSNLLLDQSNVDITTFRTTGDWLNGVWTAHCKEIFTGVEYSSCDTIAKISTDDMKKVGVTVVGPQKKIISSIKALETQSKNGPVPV

[8] = molecular target: D(4) dopamine receptor (Homo sapiens) (UniProt P21917); settings: Compound concentration 10.0 uM
Chain of D(4) dopamine receptor (Homo sapiens) (P21917 whole entry): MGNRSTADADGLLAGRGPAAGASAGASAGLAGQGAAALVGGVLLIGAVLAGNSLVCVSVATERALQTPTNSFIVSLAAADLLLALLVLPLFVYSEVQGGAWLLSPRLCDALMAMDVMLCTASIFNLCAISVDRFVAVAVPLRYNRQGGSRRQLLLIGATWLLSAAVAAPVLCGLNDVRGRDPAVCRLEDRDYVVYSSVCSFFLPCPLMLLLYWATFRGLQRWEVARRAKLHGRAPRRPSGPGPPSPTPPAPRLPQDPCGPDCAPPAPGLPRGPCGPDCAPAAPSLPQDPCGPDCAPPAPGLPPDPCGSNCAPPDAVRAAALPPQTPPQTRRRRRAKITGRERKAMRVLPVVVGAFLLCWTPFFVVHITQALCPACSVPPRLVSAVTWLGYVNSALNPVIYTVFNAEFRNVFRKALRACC

[9] = molecular target: Calcium/calmodulin-dependent protein kinase type II subunit delta (Homo sapiens) (UniProt Q13557)
Chain of Calcium/calmodulin-dependent protein kinase type II subunit delta (Homo sapiens) (Q13557 whole entry): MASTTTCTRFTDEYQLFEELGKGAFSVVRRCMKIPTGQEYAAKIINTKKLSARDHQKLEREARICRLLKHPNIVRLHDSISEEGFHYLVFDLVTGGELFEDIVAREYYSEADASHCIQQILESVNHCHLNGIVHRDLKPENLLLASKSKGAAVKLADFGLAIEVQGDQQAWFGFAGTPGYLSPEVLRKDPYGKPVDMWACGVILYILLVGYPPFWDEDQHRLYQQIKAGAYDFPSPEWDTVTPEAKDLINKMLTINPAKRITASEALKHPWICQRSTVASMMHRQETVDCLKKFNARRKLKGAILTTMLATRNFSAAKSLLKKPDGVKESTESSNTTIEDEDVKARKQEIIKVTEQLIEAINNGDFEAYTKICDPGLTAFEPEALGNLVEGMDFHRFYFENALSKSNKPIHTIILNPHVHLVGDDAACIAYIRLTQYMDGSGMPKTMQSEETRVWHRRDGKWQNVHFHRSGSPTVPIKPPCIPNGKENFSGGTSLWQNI

[10] = molecular target: Phosphatidylinositol 4-phosphate 5-kinase type-1 alpha (Homo sapiens) (UniProt Q99755)
[11] = tested on: Epidermal growth factor receptor (Homo sapiens), P00533 [G719C]
[12] = molecular target: Dual specificity protein kinase CLK4 (Homo sapiens) (UniProt Q9HAZ1)
Chain of Dual specificity protein kinase CLK4 (Homo sapiens) (Q9HAZ1 whole entry, looked up): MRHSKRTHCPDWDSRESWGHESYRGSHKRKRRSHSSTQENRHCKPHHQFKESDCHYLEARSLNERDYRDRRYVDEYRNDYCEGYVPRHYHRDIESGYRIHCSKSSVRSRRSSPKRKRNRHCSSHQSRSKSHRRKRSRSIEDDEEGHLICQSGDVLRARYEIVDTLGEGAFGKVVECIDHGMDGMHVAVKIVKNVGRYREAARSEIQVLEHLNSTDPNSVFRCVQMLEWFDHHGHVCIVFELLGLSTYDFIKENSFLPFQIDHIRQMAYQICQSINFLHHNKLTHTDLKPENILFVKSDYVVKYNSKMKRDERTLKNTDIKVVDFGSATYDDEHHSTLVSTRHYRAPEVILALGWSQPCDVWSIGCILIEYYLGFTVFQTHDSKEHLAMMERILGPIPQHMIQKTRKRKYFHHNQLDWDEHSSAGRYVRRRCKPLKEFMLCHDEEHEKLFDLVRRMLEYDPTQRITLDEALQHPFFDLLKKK

[13] = tested on: T3, Receptor-type tyrosine-protein kinase FLT3 (Homo sapiens), P36888 [D835Y]
T3 sequence (whole entry): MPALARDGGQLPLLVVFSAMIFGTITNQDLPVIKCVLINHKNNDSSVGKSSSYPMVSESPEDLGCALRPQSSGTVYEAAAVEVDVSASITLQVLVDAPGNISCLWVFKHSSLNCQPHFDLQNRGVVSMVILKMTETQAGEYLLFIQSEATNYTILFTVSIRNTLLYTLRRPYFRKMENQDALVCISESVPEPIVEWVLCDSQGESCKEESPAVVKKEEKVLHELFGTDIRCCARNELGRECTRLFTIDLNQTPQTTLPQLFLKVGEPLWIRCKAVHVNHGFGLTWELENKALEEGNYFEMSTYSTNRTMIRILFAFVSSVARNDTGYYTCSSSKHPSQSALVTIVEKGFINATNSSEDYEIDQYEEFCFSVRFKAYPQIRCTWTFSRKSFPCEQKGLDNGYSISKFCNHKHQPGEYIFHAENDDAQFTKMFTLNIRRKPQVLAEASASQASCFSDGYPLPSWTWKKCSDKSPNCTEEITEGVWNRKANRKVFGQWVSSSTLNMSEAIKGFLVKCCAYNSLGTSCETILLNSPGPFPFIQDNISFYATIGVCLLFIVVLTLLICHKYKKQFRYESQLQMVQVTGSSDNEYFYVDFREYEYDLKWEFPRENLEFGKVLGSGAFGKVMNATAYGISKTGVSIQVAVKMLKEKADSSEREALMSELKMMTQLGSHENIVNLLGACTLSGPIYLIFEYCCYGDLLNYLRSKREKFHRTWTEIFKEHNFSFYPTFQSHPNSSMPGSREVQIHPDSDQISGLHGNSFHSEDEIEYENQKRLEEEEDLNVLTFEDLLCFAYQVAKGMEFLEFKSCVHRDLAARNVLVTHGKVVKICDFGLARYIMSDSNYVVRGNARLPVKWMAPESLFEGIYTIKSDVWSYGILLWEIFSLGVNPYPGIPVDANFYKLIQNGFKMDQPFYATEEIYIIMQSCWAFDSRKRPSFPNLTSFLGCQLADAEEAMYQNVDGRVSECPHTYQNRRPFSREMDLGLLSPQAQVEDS

[14] = Compound concentration 1000.0 nM
[15] = Compound concentration 100.0 nM

Chain of Vascular endothelial growth factor receptor 1 (Homo sapiens) (P17948 whole entry): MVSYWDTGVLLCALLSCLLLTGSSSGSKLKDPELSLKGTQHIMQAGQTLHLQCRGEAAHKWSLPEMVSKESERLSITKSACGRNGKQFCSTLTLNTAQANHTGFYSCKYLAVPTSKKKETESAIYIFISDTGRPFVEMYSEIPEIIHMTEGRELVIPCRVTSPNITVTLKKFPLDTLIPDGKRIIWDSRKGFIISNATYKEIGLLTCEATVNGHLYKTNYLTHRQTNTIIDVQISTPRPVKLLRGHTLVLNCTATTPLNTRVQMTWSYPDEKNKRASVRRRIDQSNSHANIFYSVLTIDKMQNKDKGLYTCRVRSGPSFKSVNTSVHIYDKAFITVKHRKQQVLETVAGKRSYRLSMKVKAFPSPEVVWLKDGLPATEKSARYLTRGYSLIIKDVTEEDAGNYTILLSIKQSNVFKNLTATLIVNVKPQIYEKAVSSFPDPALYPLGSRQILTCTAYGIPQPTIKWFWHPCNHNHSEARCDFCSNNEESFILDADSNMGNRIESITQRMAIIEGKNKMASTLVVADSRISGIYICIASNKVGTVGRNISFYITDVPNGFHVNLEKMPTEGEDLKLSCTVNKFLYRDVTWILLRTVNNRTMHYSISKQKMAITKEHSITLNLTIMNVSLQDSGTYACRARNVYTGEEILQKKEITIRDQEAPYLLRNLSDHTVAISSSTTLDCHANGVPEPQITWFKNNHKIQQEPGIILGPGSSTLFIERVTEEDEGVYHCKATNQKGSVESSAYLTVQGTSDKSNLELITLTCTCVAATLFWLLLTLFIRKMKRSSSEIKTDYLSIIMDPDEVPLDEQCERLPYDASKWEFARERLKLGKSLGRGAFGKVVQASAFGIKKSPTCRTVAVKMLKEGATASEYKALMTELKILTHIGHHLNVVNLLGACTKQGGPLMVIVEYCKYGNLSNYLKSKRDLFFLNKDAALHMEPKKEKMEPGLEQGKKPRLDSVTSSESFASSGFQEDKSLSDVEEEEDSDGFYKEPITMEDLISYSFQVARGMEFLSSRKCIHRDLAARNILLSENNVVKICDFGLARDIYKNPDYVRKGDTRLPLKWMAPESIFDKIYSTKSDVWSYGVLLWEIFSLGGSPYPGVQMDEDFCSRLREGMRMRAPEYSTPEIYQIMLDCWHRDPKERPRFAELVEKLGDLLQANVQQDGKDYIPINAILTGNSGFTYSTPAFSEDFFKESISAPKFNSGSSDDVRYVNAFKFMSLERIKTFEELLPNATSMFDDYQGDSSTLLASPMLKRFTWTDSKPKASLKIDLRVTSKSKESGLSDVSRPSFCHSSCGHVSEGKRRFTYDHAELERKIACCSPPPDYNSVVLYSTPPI

C[C@@H]1CN(c2cc(-c3nn(C)c4ccc(OC5(C)CC5)cc34)ncn2)C[C@H](C)O1 [MLi-2-NC]
inactive: residual activity [1, 14] 95% | residual activity [2, 14] 70% | residual activity [3, 14] 94% | residual activity [4, 14] 90% | residual activity [5, 14] 100% | residual activity [6, 14] 92% | residual activity [7, 14] 68% | inhibition [8] -2.65% | residual activity [9, 14] 88% | residual activity [10, 14] 100% | residual activity [11, 14] 76% | residual activity [12, 14] 100% | residual activity [13, 14] 100%

C[C@@H]1CN(c2cc(-c3n[nH]c4ccc(OC5(C)CC5)cc34)ncn2)C[C@H](C)O1 [MLi-2]
inactive: residual activity [1, 15] 100% | residual activity [2, 15] 71% | residual activity [3, 15] 83% | residual activity [4, 15] 100% | residual activity [5, 15] 100% | residual activity [6, 15] 94% | residual activity [7, 15] 93% | inhibition [8] -4.87% | residual activity [9, 15] 100% | residual activity [10, 15] 100% | residual activity [11, 15] 63% | residual activity [12, 15] 87% | residual activity [13, 15] 100%
